Data: PubChem BioAssay (NCI)
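Protocol summary: plate cells (96-well), add compound at 5 concentrations, incubate 48 h, interpolate endpoints linearly. GI50 marks 50% less growth. TGI denotes the concentration required for complete inhibition of growth.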

Legend:
Assay in all cases: DTP human tumour cell line panel, 48 h
SW-620 colon = system: SW-620 colon
TK-10 renal = system: TK-10 renal
IGROV1 ovarian = system: IGROV1 ovarian
NCI-H23 lung = system: NCI-H23 lung
SK-MEL-5 melanoma = system: SK-MEL-5 melanoma
A549 NSCLC = system: A549 NSCLC
SF-539 CNS = system: SF-539 CNS
U251 CNS = system: U251 CNS
RPMI-8226 leukemia = system: RPMI-8226 leukemia
RXF 393 renal = system: RXF 393 renal

Compound	GI50 (SW-620 colon)	TGI (SW-620 colon)	GI50 (TK-10 renal)	TGI (TK-10 renal)	GI50 (IGROV1 ovarian)	TGI (IGROV1 ovarian)	GI50 (NCI-H23 lung)	TGI (NCI-H23 lung)	GI50 (SK-MEL-5 melanoma)	TGI (SK-MEL-5 melanoma)	GI50 (A549 NSCLC)	TGI (A549 NSCLC)	GI50 (SF-539 CNS)	TGI (SF-539 CNS)	GI50 (U251 CNS)	TGI (U251 CNS)	GI50 (RPMI-8226 leukemia)	TGI (RPMI-8226 leukemia)	GI50 (RXF 393 renal)	TGI (RXF 393 renal)
COc1ccc(NC(=O)c2cccc(C3CCc4c(cc(OC)c(OC)c4OC)O3)c2)cc1 (configuration not stated)	4.45 µM	> 100 µM	3.75 µM	> 100 µM	4.96 µM	> 100 µM	4.56 µM	> 100 µM	1.67 µM	3.89 µM	3.57 µM	> 100 µM	2.52 µM	7.01 µM	3.4 µM	> 100 µM	1.36 µM	7.93 µM	–	–
CCCCC[C@H]1C/C=C2/C(=O)C(Cl)=C[C@@H]2C/C=C\CCCC(=O)O1	0.181 µM	1.3 µM	0.612 µM	1.17 µM	0.444 µM	1.24 µM	0.493 µM	1.18 µM	0.437 µM	0.812 µM	0.625 µM	1.87 µM	0.607 µM	1.61 µM	0.33 µM	0.737 µM	0.171 µM	1.52 µM	0.457 µM	0.868 µM
OCC1OC(n2cnc3c(NCc4ccccc4O)ncnc32)C(O)C1O (configuration not stated)	0.291 µM	> 33.9 µM	0.322 µM	> 52.6 µM	0.649 µM	10.5 µM	0.457 µM	4.46 µM	1.84 µM	15.3 µM	26.5 µM	> 100 µM	0.403 µM	2.49 µM	1.16 µM	> 100 µM	5.11 µM	> 63.6 µM	4.62 µM	> 100 µM
C(=C\c1ccc(OCC2CO2)cc1)/C1=NCOC1 (configuration not stated)	6.1 µM	22.5 µM	16.2 µM	39.2 µM	5.74 µM	20.4 µM	10.7 µM	40.2 µM	12.6 µM	26.6 µM	7.51 µM	39.1 µM	9.48 µM	25.8 µM	10.1 µM	25 µM	13.1 µM	37.2 µM	2.05 µM	6.34 µM
O=c1[nH]c2ccccc2n1C1CCN(CCOc2ccccc2)CC1	50.1 µM	> 100 µM	86.2 µM	> 100 µM	91.7 µM	> 100 µM	30.5 µM	> 100 µM	16 µM	42 µM	58.3 µM	> 100 µM	44.9 µM	> 100 µM	20.5 µM	> 100 µM	9.28 µM	> 100 µM	45 µM	> 100 µM
CN(C)C/C=C/C(=O)Nc1cc2c(Nc3cccc(Cl)c3F)ncnc2cc1OCCOC(F)F	2.05 µM	11.6 µM	< 0.01 µM	1.3 µM	< 0.0142 µM	1.07 µM	2.07 µM	10.2 µM	2.46 µM	7.87 µM	1.24 µM	12.7 µM	1.5 µM	5.59 µM	2.39 µM	12.1 µM	1.53 µM	5.27 µM	0.566 µM	2.71 µM
CCOC(=O)c1ccc(NC(=O)c2cccc(NC3=C(Cl)C(=O)N(Cc4ccccc4)C3=O)c2)cc1	> 100 µM	> 100 µM	> 100 µM	> 100 µM	65 µM	> 100 µM	–	–	> 100 µM	> 100 µM	> 100 µM	> 100 µM	> 100 µM	> 100 µM	> 100 µM	> 100 µM	37.5 µM	> 100 µM	> 100 µM	> 100 µM
CC[P+]1(c2ccccc2)CCCCC1	–	> 100 µM	–	> 100 µM	–	> 100 µM	–	> 100 µM	–	> 100 µM	–	> 100 µM	–	> 100 µM	–	> 100 µM	–	> 100 µM	–	> 100 µM
FC(F)(F)c1nc(Br)[nH]c1C(F)(F)F	–	> 100 µM	–	> 100 µM	–	> 100 µM	–	> 100 µM	–	> 100 µM	–	> 100 µM	–	> 100 µM	–	> 100 µM	–	> 100 µM	–	> 100 µM
O=C(CC1Sc2ccccc2NC1=O)NNc1ccc(F)cc1 (configuration not stated)	38.5 µM	> 100 µM	> 100 µM	> 100 µM	40.5 µM	> 100 µM	> 100 µM	> 100 µM	46.1 µM	> 100 µM	74 µM	> 100 µM	16.3 µM	61.8 µM	> 100 µM	> 100 µM	52 µM	> 100 µM	> 100 µM	> 100 µM
CCc1ccccc1NC(=O)C(=O)C(C#N)c1c(Cl)cccc1Cl (configuration not stated)	–	> 100 µM	–	> 100 µM	–	> 100 µM	–	> 100 µM	–	–	–	> 100 µM	–	> 100 µM	–	> 100 µM	–	> 100 µM	–	–
CCOC(=O)c1cc2c(n1Cc1ccccc1OC)-c1oncc1CCC2	2.02 µM	> 100 µM	67.8 µM	> 100 µM	1.99 µM	> 100 µM	8.52 µM	> 100 µM	2.61 µM	> 100 µM	–	–	2.48 µM	8.57 µM	3.78 µM	> 100 µM	4.11 µM	> 100 µM	–	–
Cc1cc(OCc2nn(CN3CCN(C)CC3)c(=S)n2/N=C/c2ccc(F)cc2)ccc1Cl	18.7 µM	35.7 µM	14.6 µM	33.7 µM	16.2 µM	30.5 µM	16.9 µM	31.1 µM	16.7 µM	30.6 µM	16.9 µM	31.3 µM	19.3 µM	40.1 µM	–	–	16.8 µM	40.7 µM	17.5 µM	31.9 µM
Cc1ccc2c(c1)C(O)(c1ccccc1)CCS2 (configuration not stated)	–	> 100 µM	–	78.6 µM	–	65.7 µM	–	89.9 µM	–	> 100 µM	–	> 100 µM	–	55 µM	–	45.8 µM	–	–	–	> 100 µM
